Data on one compound can be found in patent US12295929B2, “Intravenous baclofen formulations and treatment methods” (Allaysis, LLC, priority 2015, dated 2025).

Series [1] in a line: Randomized, open-label, 2-way crossover pharmacokinetics and bioavailability study of oral vs intravenous baclofen. It is filed as in vivo, human. The settings on record: for Cmax: healthy human volunteers; for Cmax / AUC: plasma; for Cmax / AUC0-∞/Dose / AUC: mean ± SD; for AUC: human. As for the experimental part: Twelve healthy human volunteers were recruited. The volunteers were medication free for 48 hours before, during, and 24 hours after the administration of the study drug.
The 12 volunteers participated in a randomized, open-label, 2-way crossover study to compare the pharmacokinetics and bioavailability of oral baclofen with an intravenous baclofen formulation. The oral formulation was a 10 mg baclofen tablet. A single intravenous dose of 5 mg was administered over 15 minutes, using the commercially available 2 mg/mL intrathecal baclofen formulation (Lioresal Intrathecal). Blood samples (6 mL) for the measurement of plasma concentrations of baclofen were collected in blood collection tubes containing K2 ethylenediaminetetraacetic acid at the following times: prior to dosing; at 5, 15, and 30 minutes; and at 1, 2, 4, 6, 8, 10, 12, and 24 hours after drug administration.
Study plasma samples were prepared by adding 50 μL of a 500 μg/mL levetiracetam solution (internal standard) to 250 μL of K2 ethylenediaminetetraacetic acid (EDTA) human plasma. Baclofen and the internal standard were extracted from plasma by precipitating the protein with methanol and drying it under nitrogen at approximately 40° C. The dried residues were reconstituted in 300 μL of a mobile phase consisting of 20 mM ammonium acetate—methanol (75:25) solution. After 1 minute of vortex mixing, the reconstituted sample solution was filtered and injected onto the high-performance liquid chromatograph-mass spectrometer system. Standard curve samples over a range of 20 to 400 ng/mL baclofen and quality control samples containing 30 (low), 80 (medium), and 240 ng/mL (high) baclofen were prepared and analyzed in triplicate along with the study samples. The assay was linear over the range 20-400 ng/mL with a lower limit of quantification of 20 ng/mL.
Baclofen concentration—time data were analyzed using a noncompartmental pharmacokinetic approach with Phoenix software (version 6.2; Pharsight Corporation, Mountain View, CA). The terminal rate constant (λz) was determined from the slope of the terminal log-linear portion of the plasma concentration—time curve, and the terminal half-life (t1/2) was calculated as ln 2/(λz). Maximum plasma concentrations (Cmax) and time to maximum concentration (Tmax) were determined by direct observation of the data. The area under the concentration-time curve to the last nonzero plasma concentration (Clast) that was above half the lower limit of quantification (10 ng/mL) was calculated by the trapezoidal rule and reported as AUClast. The area under the concentration-time curve extrapolated to infinity (AUC0-∞) was calculated as AUClast+(Clast/λz). Mean and standard deviation values for the parameters were also obtained using the descriptive statistics tool in Phoenix version 6.2. A paired t-test was used to determine if statistical differences existed in log normalized, dose-adjusted area under the curve between oral and intravenous arms.

The conditions of series [2]: cited from earlier work.

With `NCC(CC(=O)O)c1ccc(Cl)cc1` (racemic) [Baclofen, 4-amino-3-(4-chlorophenyl) butanoic acid], the “time point of observed maximum baclofen concentration” value in series [1] (5 mg IV over 15 minutes) stood at 5 min. Also, the Cmax in series [1] (5 mg IV over 15 minutes) was 313 ng/mL; in series [1] (10 mg oral tablet), 176 ng/mL. Besides, the “AUC0-∞/Dose” value was determined as 141 ± 33 ng·h/mL/mg in series [1] (5 mg IV) and 102 ± 23 ng·h/mL/mg in series [1] (10 mg oral). The time of peak concentration (Tmax) in series [1] (10 mg oral tablet, median (min, max)) amounted to 1 h. The AUC is 593 ± 111 ng·h/mL in series [1] (5 mg IV) and 878 ± 199 ng·h/mL in series [1] (10 mg oral). The solubility in water entry in series [2] is recorded as “slightly soluble”.

One may read the Cmax as the maximum level reached in the sampled fluid or tissue. For orientation: Tmax means the time at which the peak concentration occurs. The AUC is concentration integrated over time.
